In PMC8645421 (Computational and Structural Biotechnology Journal, 2021) one finds Km data, which are given here for 12 molecules.

The structures appear in SMILES notation.

Common to all, as to conditions: read-out: Km (mM) ^3; 50 mM Britton and Robinson buffer, pH 7.0, 30 °C
For experiment [1], the system named is T0191. The experiment can be described thus: HPAEC-PAD. It counts as biochemical, uncultured Marinifilaceae bacterium.
Experiment [2] has as its system T0193. The experiment can be described thus: HPAEC-PAD. It counts as biochemical, uncultured Flavobacteriaceae bacterium.
Experiment [3] has as its system T0215. Kind of experiment: HPAEC-PAD. It counts as biochemical, uncultured Marinifilaceae bacterium.
The next experiment relates to T0218. The experiment can be described thus: pNP release at […] nm. It counts as biochemical, metagenome.
Another experiment has as its system T0220. The experiment can be described thus: pNP release at […] nm. It counts as biochemical, metagenome.
A further experiment deals with T0217. Kind of experiment: pNP release at […] nm. It counts as biochemical, metagenome.
A further experiment has as its system T0216. The experiment can be described thus: pNP release at […] nm. It counts as biochemical, uncultured Flavobacteriaceae bacterium.
The subject of experiment [4] is T0193. Kind of experiment: pNP release at […] nm. It counts as biochemical, uncultured Flavobacteriaceae bacterium.
Experiment [5] concerns T0191. Kind of experiment: pNP release at […] nm. It counts as biochemical, uncultured Marinifilaceae bacterium.
Experiment [6] has as its system T0215. The experiment can be described thus: pNP release at […] nm. It counts as biochemical, uncultured Marinifilaceae bacterium.
The next experiment concerns T0201. The experiment can be described thus: pNP release at […] nm. It counts as biochemical, metagenome.
The next experiment has as its system T0199. The experiment can be described thus: pNP release at […] nm. It counts as biochemical, metagenome.
The subject of another experiment is T0207. The experiment can be described thus: pNP release at […] nm. It counts as biochemical, Osedax.
The test system of a further experiment is T0204. Kind of experiment: pNP release at […] nm. It counts as biochemical, metagenome.

`CC(=O)N[C@H]1[C@H]([C@H](O)[C@H](O)CO)O[C@@](O[C@H]2[C@@H](O)[C@@H](CO)O[C@@H](O[C@H]3[C@H](O)[C@@H](O)C(O)O[C@@H]3CO)[C@@H]2O)(C(=O)O)C[C@@H]1O` (stereo partly drawn) [3-Sialyllactose]: the Km (commonly the concentration of substrate that gives half-maximal velocity) was determined as 0.031 ± 0.001 mM in the experiment on T0191 [1] and 0.082 ± 0.06 mM with T0193 [2].
For `CC(=O)N[C@H]1[C@H]([C@H](O)[C@H](O)CO)O[C@@](OC[C@H]2O[C@@H](O[C@H]3[C@H](O)[C@@H](O)C(O)O[C@@H]3CO)[C@H](O)[C@@H](O)[C@H]2O)(C(=O)O)C[C@@H]1O` (stereo partly drawn) [6-Sialyllactose], in the experiment on T0191 [1], the Km turned out to be 0.053 ± 0.001 mM.
Take `OC[C@H]1O[C@H](O[C@H]2[C@@H](O)[C@@H](CO)OC(O)[C@@H]2O)[C@H](O)[C@@H](O)[C@H]1O` (stereo partly drawn) [Galactose-α-1,3-galactose]: the Km in the experiment on T0215 [3] stood at 0.048 ± 0.009 mM.
The same measure, in the same setting: the result for `CCCCCCCCCCCCC/C=C/[C@@H](O)[C@@H](N)CO[C@@H]1O[C@H](CO)[C@@H](O[C@@H]2O[C@H](CO)[C@H](O[C@H]3O[C@H](CO)[C@H](O)[C@H](O)[C@H]3O)[C@H](O)[C@H]2O)[C@H](O)[C@H]1O` [Globotriaosylsphingosine] reads 0.058 ± 0.007 mM.
With `CC(=O)N[C@H]1[C@H](Oc2ccc([N+](=O)[O-])cc2)O[C@H](CO)[C@H](O)[C@@H]1O` [pNP-NAβGal], in the experiment with T0218, the Km amounted to 0.326 ± 0.037 mM.
Turning to `CC(=O)N[C@H]1[C@H](Oc2ccc([N+](=O)[O-])cc2)O[C@H](CO)[C@@H](O)[C@@H]1O` [pNP-NAβGlu], the Km in the experiment with T0220 came to 0.042 ± 0.004 mM; in the experiment with T0218 it was 0.134 ± 0.015 mM; with T0217, 0.028 ± 0.012 mM; in the experiment with T0216, 0.025 ± 0.006 mM.
Turning to `CC(=O)N[C@H]1[C@H]([C@H](O)[C@H](O)CO)O[C@@](Oc2ccc([N+](=O)[O-])cc2)(C(=O)O)C[C@@H]1O` [pNP-Neu5Ac], the Km in the experiment on T0193 [4] turned out to be 0.55 ± 0.17 mM; with T0191 [5], 0.18 ± 0.03 mM.
`O=[N+]([O-])c1ccc(O[C@H]2O[C@H](CO)[C@H](O)[C@H](O)[C@H]2O)cc1` [pNP-αGal]: the Km was determined as 0.062 ± 0.008 mM in the experiment on T0215 [6] and 6.22 ± 0.93 mM in the experiment with T0201.
`C[C@@H]1O[C@@H](Oc2ccc([N+](=O)[O-])cc2)[C@H](O)[C@H](O)[C@H]1O` [pNP-αRham]: the Km with T0199 was determined as 1.08 ± 0.15 mM.
Consider `C[C@H]1O[C@@H](Oc2ccc([N+](=O)[O-])cc2)[C@H](O)[C@@H](O)[C@H]1O` [pNP-β-Fuc], for which the Km in the experiment with T0207 was 0.0118 ± 0.003 mM.
Consider `O=[N+]([O-])c1ccc(O[C@@H]2O[C@H](CO)[C@H](O)[C@H](O)[C@H]2O)cc1` [pNP-βGal], for which, in the experiment on T0207, the Km came out at 0.199 ± 0.032 mM.
On to `O=[N+]([O-])c1ccc(O[C@@H]2O[C@H](CO)[C@@H](O)[C@H](O)[C@@H]2O)cc1` [pNP-βMan], for which, in the experiment with T0204, the Km was 0.127 ± 0.036 mM.
